Consider 18 molecules from patent US12419307B2, “Mixtures comprising indazole pesticides” (FMC Corporation, priority 2019, dated 2025).

What is called mortality is the percentage killed.

Holding throughout (type): in vivo
Data set [1] concerns silverleaf whitefly (Bemisia argentifolii Bellows and Perring). Put plainly: Test A: silverleaf whitefly control on cotton or soybean plants, spray, insect mortality after 13 days. As to conditions: for % Mortality (obs): applied alone. The method, then: (§1) The pest control protection afforded by the mixtures or compositions is not limited, however, to these species. The analysis of enhanced activity between the mixtures or compositions was determined using Colby's equation. The average % mortality data for the test compounds alone were inserted into the Colby's equation. If the observed (obs) average % mortality was higher than “p”, the expected (exp) % mortality, the mixture or composition had enhanced effects. If the observed average % mortality was equal to or lower than the expected mortality, the mixture or composition either had no enhanced effect. For bioassays where insect feeding damage was evaluated, enhanced activity is identified when the observed plant damage is less than the expected plant damage rating; ratings ranged between 0 (no damage) and 10 (dead plant) and each value was converted to a % plant protection. 100−(Obs Plant Damage*10)
For evaluating control of silverleaf whitefly (Bemisia argentifolii Bellows and Perring) through contact and/or systemic means, each test unit consisted of a small open container with a 12- to 14-day-old cotton plant or 5-7 day old soybean plant inside. This was pre-infested by placing test units into cages containing adult whiteflies so that oviposition on the cotton leaves could occur. The adults were removed from the plants with an air-blast nozzle, and the test units were capped. The test units were then stored 2 to 3 days before spraying.
Test compounds were formulated using a solution containing 10% acetone, 90% water and 300 ppm Activator 90@ Spreader Lo-Foam Formula non-ionic surfactant containing alkylarylpolyoxyethylene, free fatty acids, glycols and 2-propanol (Loveland Industries, Inc.) to provide the desired concentration in ppm. Formulated test solutions were then applied in 1 mL volumes through a SUJ2 atomizer nozzle with ⅛ JJ custom body (Spraying Systems Co.) positioned 1.27 cm (0.5 inches) above the top of each test unit.
The results for all experimental compositions in this test were replicated three times. After spraying of the formulated test composition, each test unit was allowed to dry for 1 hour and the cap removed. The test units were held for 13 days in a growth chamber at 28° C. and 50-70% relative humidity.

Data set [2] has as its system cotton melon aphid (Aphis gossypii Glover). Briefly: Test D: cotton melon aphid control on okra plants, insect mortality after 6 days. The method, then:
The analysis of enhanced activity between the mixtures or compositions was determined using Colby's equation. The average % mortality data for the test compounds alone were inserted into the Colby's equation. If the observed (obs) average % mortality was higher than “p”, the expected (exp) % mortality, the mixture or composition had enhanced effects. If the observed average % mortality was equal to or lower than the expected mortality, the mixture or composition either had no enhanced effect. For bioassays where insect feeding damage was evaluated, enhanced activity is identified when the observed plant damage is less than the expected plant damage rating; ratings ranged between 0 (no damage) and 10 (dead plant) and each value was converted to a % plant protection. 100−(Obs Plant Damage*10)
For evaluating control of cotton melon aphid (Aphis gossypii Glover) through contact and/or systemic means, each test unit consisted of a small open container with a 6- to 7-day-old okra plant inside. This was pre-infested by placing on a leaf of the test plant 30 to 40 aphids on a piece of leaf excised from a culture plant (cut-leaf method). The […] moved onto the test plant as the leaf piece desiccated. After pre-infestation, the soil of the test unit was covered with a layer of sand.
Test compounds were formulated and sprayed as described for Test A. The applications were replicated three times. After spraying of the formulated test compounds, each test unit was allowed to dry for 1 hour and then a black, screened cap was placed on top. […]

Data set [3] concerns Western Flower Thrips (Frankliniella occidentalis Pergande). Put plainly: Test B: Western Flower Thrips control on bean plants, plant damage rating converted to % plant protection after 7 days. The method, then:
as §1
Thus, a plant given a plant damage rating of 3 out of 10 is equivalent to 70% plant protection In all of these tests, compounds of Formula I are Compounds 1 (Cpd 1), 2 (Cpd2), and 3 (Cpd3) and compounds of Formula II are compounds 4 (Cpd4) and 5 (Cpd 5).
For evaluating control of the Western Flower Thrips (Frankliniella occidentalis Pergande) through contact and/or systemic means, each test unit consisted of a small open container with a 5- to 7-day-old bean (var. Soleil) plant inside.
Test solutions were formulated and sprayed with 3 replications as described for Test A. After spraying, the test units were allowed to dry for 1 hour, 22 to 27 adult thrips were added to each unit and then a black, screened cap was placed on top. The test units were held for 7 days at 25° C. and 45-55% relative humidity. To evaluate the level of plant protection provided by each treatment, each test unit was then visually assessed for plant damage inflicted by insect feeding and rated 0-10, where 0=undamaged and 10=plant is dead; the results are listed in Tables 3a-g.

Data set [4] has as its system corn planthopper (Peregrinus maidis (Ashmead)). Put plainly: Test C: corn planthopper control on corn plants, insect mortality after 6 days. To be noted: for % Mortality (obs): Table 4e. The method, then: as §1
For evaluating control of corn planthopper (Peregrinus maidis (Ashmead)) through contact and/or systemic means, the test unit consisted of a small open container with a 3-4-day-old corn (maize) plant inside. White sand was added to the top of the soil prior to application of the test compound.
Test compounds were formulated and sprayed at 250 and/or 50 ppm and/or 10 ppm. After spraying of the formulated test compound, the test units were allowed to dry for 1 h before they were post-infested with ˜15-20 nymphs (18-to-21-day-old). […]

The subject of data set [5] is fall armyworm (Spodoptera frugiperda (J. E. Smith)). Briefly: Test E: fall armyworm control on corn plants, plant damage rating and mortality after 6 days. The method, then:
as §1
For evaluating control of fall armyworm (Spodoptera frugiperda (J. E. Smith)) the test unit consisted of a small open container with a 4-5-day-old corn (maize) plant inside. This was pre-infested with 10-15 1-day-old larvae on a piece of insect diet. Test compounds were formulated and sprayed with 3 replications as described for Test A. After spraying of the formulated test compound, the test units were maintained in a growth chamber for 6 days at 25° C. and 70% relative humidity. Plant feeding damage was then visually assessed based on foliage consumed, and larvae were assessed for mortality. Each test unit was then visually assessed for plant damage and rated 0-10, where 0=undamaged and 10=plant is dead; the results are listed in Tables 6d-i.

[6] abbreviates: Bemisia argentifolii, read-out: % Mortality (obs).
[7] abbreviates: Aphis gossypii, read-out: % Mortality (obs).
Setting [8] is: Peregrinus maidis, read-out: % Mortality (obs).
Setting [9] is: Spodoptera frugiperda, 144 h, read-out: Plant Protection (obs).

Take `Cc1c(COC(=O)[C@@H]2[C@H](/C=C(\Cl)C(F)(F)F)C2(C)C)cccc1-c1ccccc1` (racemic) [Bifenthrin, bifenthrin, reference compound]: in data set [1] (setting [6]), the mortality at 50 ppm amounted to 0% and the mortality at 250 ppm was 0%. In data set [2] (setting [7]), the mortality at 50 ppm worked out at 28.7% and the mortality at 250 ppm is 58.2%. In data set [3] (Frankliniella occidentalis, 168 h, Table 3f, 50 ppm, read-out: Plant Protection (obs)), the pest or weed control at 50 ppm was determined as 36.7%. The pest or weed control at 250 ppm in data set [3] (Frankliniella occidentalis, 168 h, Table 3f, 250 ppm, read-out: Plant Protection (obs)) came to 70%.

With `C/C(=N\C#N)N(C)Cc1ccc(Cl)nc1` [Acetamiprid, acetamiprid, reference compound], in data set [1] (setting [6]), the mortality at 2.52 ppm was 6.5% and the mortality at 6.88 ppm was found to be 25.4%. In data set [2] (setting [7]), the mortality at 0.03 ppm was determined as 21.1% and the mortality at 0.06 ppm came to 45.1%. Also, the “Plant Protection (obs)” value in data set [3] (Table 3b, applied alone, 5.49 ppm) is recorded as 30.0%. Also, the “Plant Protection (obs)” value in data set [3] (Table 3b, applied alone, 7.04 ppm) is reported as 70.0%.

As for `CC(C)N1C(=O)N(c2ccccc2)CS/C1=N\C(C)(C)C` [Buprofezin, buprofezin, reference compound], in data set [4] (setting [8]), the mortality at 0.524 ppm worked out at 83.7% and the mortality at 0.984 ppm worked out at 94.6%.

Consider `CNC(=O)c1cc(Cl)cc(C)c1NC(=O)c1cc(Br)nn1-c1ncccc1Cl` [Chlorantraniliprole, chlorantraniliprole, reference compound], for which, in data set [1] (setting [6]), the mortality at 0.54 ppm is 0% and the mortality at 189.1 ppm stood at 59.2%. Further, in data set [2] (setting [7]), the mortality at 0.23 ppm came out at 21% and the mortality at 0.63 ppm turned out to be 42.3%. Also, the pest or weed control at 2.08 ppm in data set [3] (Frankliniella occidentalis, 168 h, Table 3e, 2.08 ppm, read-out: Plant Protection (obs)) is 63.3%. For the same molecule, the pest or weed control at 28.7 ppm in data set [3] (Frankliniella occidentalis, 168 h, Table 3e, 28.7 ppm, read-out: Plant Protection (obs)) was 60%.

On to `CCOCn1c(-c2ccc(Cl)cc2)c(C#N)c(Br)c1C(F)(F)F` [Chlorfenapyr, chlorfenapyr, reference compound], for which, in data set [5] (setting [9]), the pest or weed control at 3.7 ppm is 66.7% and the pest or weed control at 5 ppm was 53.3%.

On to `CCOP(=S)(OCC)Oc1nc(Cl)c(Cl)cc1Cl` [Chlorpyrifos, chlorpyrifos, reference compound], for which, in data set [2] (setting [7]), the mortality at 0.173 ppm came out at 17.7% and the mortality at 0.624 ppm is 37.9%.

For the molecule `N#Cc1nn(-c2c(Cl)cc(C(F)(F)F)cc2Cl)c(N)c1[S+]([O-])C(F)(F)F` (stereo not shown) [Fipronil, fipronil, reference compound], in data set [4] (setting [8]), the mortality at 0.78 ppm worked out at 65.2% and the mortality at 1.197 ppm came to 85.5%.

With `N#CCNC(=O)c1cnccc1C(F)(F)F` [Flonicamid, flonicamid, reference compound], the “% Mortality (obs)” value in data set [2] (Table 5k, 0.027 ppm) stood at 24.2%; in data set [2] (Table 5k, 0.267 ppm) it was 49.3%.

Regarding `O=C1C=C(N(Cc2ccc(Cl)nc2)CC(F)F)CO1` [Flupyradifurone, 4-[[(6-chloro-3-pyridinyl)methyl](2,2-difluoroethyl)amino]-2(5H)-furanone, reference compound], in data set [2] (setting [7]), the mortality at 0.02 ppm came to 23.4% and the mortality at 0.075 ppm worked out at 48%.

In the case of `COC(=O)N(C(=O)N1CO[C@@]2(C(=O)OC)Cc3cc(Cl)ccc3C2=N1)c1ccc(OC(F)(F)F)cc1` [Indoxacarb, indoxacarb, reference compound], the “Plant Protection (obs)” value in data set [5] (Table 6e, 0.2 ppm) came out at 70; in data set [5] (Table 6e, 0.5 ppm), 70; in data set [3] (Table 3g, 50 ppm), 10.0; in data set [3] (Table 3g, 250 ppm), 36.7. The “% Mortality (obs)” value in data set [1] (Table 2g, 50 ppm) was found to be 1.2%; in data set [1] (Table 2g, 250 ppm), 0%; in data set [2] (Table 5h, 50 ppm), 23.4%; in data set [2] (Table 5h, 250 ppm), 37.5%.

Turning to `CNC(=O)ON=C(C)SC` [Methomyl, methomyl, reference compound], the pest or weed control at 8.5 ppm in data set [5] (setting [9]) was 43.3%.

On to `COc1cccc(C(=O)NN(C(=O)c2cc(C)cc(C)c2)C(C)(C)C)c1C` [Methoxyfenozide, methoxyfenozide, reference compound], for which the pest or weed control at 2.8 ppm in data set [5] (setting [9]) is 36.7%.

`O=C(NC(=O)c1c(F)cccc1F)Nc1ccc(OC(F)(F)C(F)OC(F)(F)F)c(Cl)c1` (stereo not shown) [Novaluron, novaluron, reference compound]: in data set [5] (setting [9]), the pest or weed control at 0.21 ppm was found to be 33.3% and the pest or weed control at 0.36 ppm came out at 80%.

Consider `CC1(C)C(C=C(Cl)Cl)C1C(=O)OCc1cccc(Oc2ccccc2)c1` (stereo not shown) [Permethrin, permethrin, reference compound], for which, in data set [2] (setting [7]), the mortality at 0.0004 ppm worked out at 15.6% and the mortality at 0.04 ppm came to 32.1%.

For `CC(COc1ccc(Oc2ccccc2)cc1)Oc1ccccn1` (stereo not shown) [Pyriproxyfen, pyriproxyfen, reference compound], in data set [1] (setting [6]), the mortality at 0.053 ppm amounted to 68%.

Consider `CCc1nn(C)c(C(=O)NCc2ccc(Oc3ccc(C)cc3)cc2)c1Cl` [Tolfenpyrad, tolfenpyrad, reference compound], for which, in data set [2] (setting [7]), the mortality at 0.192 ppm amounted to 29% and the mortality at 0.753 ppm was 61.9%.

Take emamectin benzoate [reference compound]: the “Plant Protection (obs)” value in data set [5] (Table 6f, 0.03 ppm) is listed as 43.3; in data set [5] (Table 6f, 0.06 ppm), 23.3.

With spinetoram [reference compound], the “% Mortality (obs)” value in data set [4] (8.46 ppm) came out at 7.5%; in data set [4] (20.79 ppm), 14.1%; in data set [1] (Table 2h, 5 ppm), 0%; in data set [1] (Table 2h, 29.5 ppm), 64.4%; in data set [2] (Table 5f, 50 ppm), 51.2%; in data set [2] (Table 5f, 250 ppm), 73.9%.
